According to US20260356820A1, “Pyrrolidine and Imidazolidine Based DNA Polymerase Theta Inhibitors and Use Thereof” (Thomas Jefferson University, priority 2022, published 2026):
Where two headings read alike, the source gives them in different places.

Biological target: T1, human Polq polymerase domain (Homo sapiens, UniProt O75417)
T1 sequence (O75417 1792-2590): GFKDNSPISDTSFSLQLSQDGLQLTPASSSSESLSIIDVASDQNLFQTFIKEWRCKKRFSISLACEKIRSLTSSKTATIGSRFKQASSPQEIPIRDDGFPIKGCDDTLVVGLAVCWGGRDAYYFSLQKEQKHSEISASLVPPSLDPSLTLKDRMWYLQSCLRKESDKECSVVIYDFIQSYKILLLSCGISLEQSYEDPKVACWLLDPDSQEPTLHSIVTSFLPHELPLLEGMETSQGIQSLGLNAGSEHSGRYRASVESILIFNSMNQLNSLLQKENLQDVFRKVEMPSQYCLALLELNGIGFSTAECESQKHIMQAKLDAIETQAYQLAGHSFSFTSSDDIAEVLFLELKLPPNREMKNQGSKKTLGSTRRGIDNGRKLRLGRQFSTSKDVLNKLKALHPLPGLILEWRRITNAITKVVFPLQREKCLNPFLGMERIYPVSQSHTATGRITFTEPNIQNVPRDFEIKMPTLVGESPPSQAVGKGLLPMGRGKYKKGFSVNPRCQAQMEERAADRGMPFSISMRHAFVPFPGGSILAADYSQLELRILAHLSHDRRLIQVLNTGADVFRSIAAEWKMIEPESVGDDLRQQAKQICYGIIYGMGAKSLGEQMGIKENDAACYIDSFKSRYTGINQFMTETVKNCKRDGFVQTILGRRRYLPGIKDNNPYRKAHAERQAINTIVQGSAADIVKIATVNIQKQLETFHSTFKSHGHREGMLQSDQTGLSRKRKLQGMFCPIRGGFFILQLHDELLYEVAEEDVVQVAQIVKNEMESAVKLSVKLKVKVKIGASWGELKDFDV
Assay: Cy5 fluorescence assay of Polq polymerase domain inhibition
Assay type: biochemical
Procedure: The following Cy5 fluorescence assay was used to measure the ability of compounds to inhibit Polq polymerase domain in vitro. The fluorescent based assay was performed as follows: 60 nM of the pre-annealed primer-template containing a 5′ Cy5 fluorophore conjugated template strand (SEQ ID NO:3: 5′-/5Cy5/[…]-3′), a downstream complementary oligo conjugated with a 3′ Blackhole quencher (SEQ ID NO:4: 5′-CTAAGCTCACAGTG/3IAbRQSp/-3′) and a primer strand (SEQ ID NO:5: 5′-CTGTCCTGCATGATG-3′) was mixed with 50 uM 2′-deoxyribonucleoside triphosphates (dNTPs), 0.1 mg/mL Bovine serum albumin (BSA), 0.01% NP-40, 10% glycerol, 1 mM dithiothreitol (DTT), 10 mM MgCl2, 25 mM TrisHCl pH 7.8 in the presence of 2.5% DMSO with or without various concentrations (7-point dilution series) of Polq small molecule inhibitors represented by Formula I at 37 °C in a volume of 40 μL.

[1] = 5 nM Polq polymerase domain (residues 1792-2590), 60 nM primer-template, 50 uM dNTPs, 37 °C, 18 min, read-out: IC50 (nM) Polq

Row | SMILES | IC50 [nM] | IC50 [1] [nM]
1 | [2H]C([2H])([2H])N(C(=O)Oc1c(N2CCN(CC(O)CNC)C2=O)cc(C(F)(F)F)cc1C(F)(F)F)c1ccc(F)c(Cl)c1F (centres unmarked) [Example 44, 2-(3-(2-hydroxy-3-(methylamino)propyl)-2-oxoimidazolidin-1-yl)-4,6-bis(trifluoromethyl)phenyl (3-chloro-2,4-difluorophenyl)(methyl-d3)carbamate] | 7 | –
2 | CN(C(=O)Oc1c(N2CCNC2=O)cc(C(F)(F)F)cc1C(F)(F)F)c1ccc2ccn(C)c2n1 [Example 29, 2-(2-oxoimidazolidin-1-yl)-4,6-bis(trifluoromethyl)phenyl N-methyl-N-{1-methyl-1H-pyrrolo[2,3-b]pyridin-6-yl}carbamate] | 18000 | –
3 | CN(C(=O)Oc1c(N2CCNC2=O)cc(C(F)(F)F)cc1C(F)(F)F)c1ccc(F)c(Cl)c1F [Example 7, 2,4-bis(trifluoromethyl)-6-(2-oxoimidazolidin-1-yl)phenyl (3-chloro-2,4-difluorophenyl)(methyl)carbamate] | 4 | –
4 | CN(C(=O)Oc1c(N2CC(C(F)(F)F)NC2=O)cc(C(F)(F)F)cc1C(F)(F)F)c1ccc(F)cc1 (centres unmarked) [Example 18, 2-(2-oxo-4-(trifluoromethyl)imidazolidin-1-yl)-4,6-bis(trifluoromethyl)phenyl (4-fluorophenyl)(methyl)carbamate] | 22 | –
5 | [2H]C([2H])([2H])N(C(=O)Oc1c(N2CCN(CC(O)CNC)C2=O)cc(C(F)(F)F)cc1C(F)(F)F)c1ccc(F)cc1 (centres unmarked) [Example 45, 2-(3-(2-hydroxy-3-(methylamino)propyl)-2-oxoimidazolidin-1-yl)-4,6-bis(trifluoromethyl)phenyl (4-fluorophenyl)(methyl-d3)carbamate] | – | 6.1
6 | CN(C(=O)Oc1c(N2CCN(CC3(O)CNC3)C2=O)cc(C(F)(F)F)cc1C(F)(F)F)c1ccc(F)c(Cl)c1F [Example 38, 2,4-bis(trifluoromethyl)-6-(3-((3-hydroxyazetidin-3-yl)methyl)-2-oxoimidazolidin-1-yl)phenyl (3-chloro-2,4-difluorophenyl)(methyl)carbamate] | 7.8 | –
7 | [2H]C([2H])([2H])N(C(=O)Oc1c(N2CCN(CC3(O)CNC3)C2=O)cc(C(F)(F)F)cc1C(F)(F)F)c1ccc(F)c(Cl)c1F [Example 37, 2-(3-((3-hydroxyazetidin-3-yl)methyl)-2-oxoimidazolidin-1-yl)-4,6-bis(trifluoromethyl)phenyl (3-chloro-2,4-difluorophenyl)(methyl-d3)carbamate] | 2.7 | –
8 | Cc1cc(C(F)(F)F)cc(N2CCNC2=O)c1OC(=O)N(C)c1ccc(F)c(Cl)c1 [Example 14, 2-methyl-6-(2-oxoimidazolidin-1-yl)-4-(trifluoromethyl)phenyl (3-chloro-4-fluorophenyl)(methyl)carbamate] | 45 | –
9 | Cc1cc(C(F)(F)F)cc(N2CCNC2=O)c1OC(=O)N(C)c1ccc(F)cc1 [Example 13, 2-methyl-6-(2-oxoimidazolidin-1-yl)-4-(trifluoromethyl)phenyl(4-fluorophenyl)(methyl)carbamate] | 29 | –
10 | CN(C(=O)Oc1c(Cl)cc(Cl)cc1N1CCN(CCO)C1=O)c1ccc(F)cc1 [Example 55, 2,4-dichloro-6-(3-(2-hydroxyethyl)-2-oxoimidazolidin-1-yl)phenyl (4-fluorophenyl)(methyl)carbamate] | 133 | –
11 | CN(C(=O)Oc1c(N2CCN(CCN3CCC(C#N)CC3)C2=O)cc(C(F)(F)F)cc1C(F)(F)F)c1ccc(F)cc1 [Example 3, 2-(3-(2-(4-cyanopiperidin-1-yl)ethyl)-2-oxoimidazolidin-1-yl)-4,6-bis(trifluoromethyl)phenyl (4-fluorophenyl)(methyl)carbamate] | 6 | –
12 | CNCC(O)CN1CCN(c2cc(C(F)(F)F)cc(C(F)(F)F)c2OC(=O)N(C)c2ccc(F)cc2)C1=O (centres unmarked) [Example 48, 2-(3-(2-hydroxy-3-(methylamino)propyl)-2-oxoimidazolidin-1-yl)-4,6-bis(trifluoromethyl)phenyl (4-fluorophenyl)(methyl)carbamate] | – | 5.1
13 | [2H]C([2H])([2H])N(C(=O)Oc1c(N2CCN(CCn3ccnc3)C2=O)cc(C(F)(F)F)cc1C(F)(F)F)c1ccc(F)cc1 [Example 42, 2-(3-(2-(1H-imidazol-1-yl)ethyl)-2-oxoimidazolidin-1-yl)-4,6-bis(trifluoromethyl)phenyl (4-fluorophenyl)(methyl-d3)carbamate] | 11.7 | –
14 | CN(C(=O)Oc1c(N2CCN(CCOC(F)F)C2=O)cc(C(F)(F)F)cc1C(F)(F)F)c1ccc(F)cc1 [Example 32, 2-(3-(2-(difluoromethoxy)ethyl)-2-oxoimidazolidin-1-yl)-4,6-bis(trifluoromethyl)phenyl N-(4-fluorophenyl)-N-methylcarbamate] | 2.3 | –
15 | CN(C(=O)Oc1c(N2CCNC2=O)cc(C(F)(F)F)cc1C(F)(F)F)c1ccc(OC(F)F)cc1 [Example 26, 2-(2-oxoimidazolidin-1-yl)-4,6-bis(trifluoromethyl)phenyl (4-(difluoromethoxy)phenyl)(methyl)carbamate] | 48 | –
16 | CN(C(=O)Oc1c(N2CCNC2=O)cc(C(F)(F)F)cc1C(F)(F)F)c1ccc(F)cc1 [Example 4, 2,4-bis(trifluoromethyl)-6-(2-oxoimidazolidin-1-yl)phenyl (4-fluorophenyl)(methyl)carbamate] | 3.4 | –
17 | Cc1nc(N(C)C(=O)Oc2c(N3CCNC3=O)cc(C(F)(F)F)cc2C(F)(F)F)ccc1F [Example 53, 2-(2-oxoimidazolidin-1-yl)-4,6-bis(trifluoromethyl)phenyl (5-fluoro-6-methylpyridin-2-yl)(methyl)carbamate] | 2.7 | –
18 | CN(C(=O)Oc1c(N2CCN(C3CC(O)C3)C2=O)cc(C(F)(F)F)cc1C(F)(F)F)c1ccc(F)cc1 (centres unmarked) [Example 34, 2-(3-(3-hydroxycyclobutyl)-2-oxoimidazolidin-1-yl)-4,6-bis(trifluoromethyl)phenyl (4-Fluorophenyl)(methyl)carbamate] | 2 | –
19 | CN(C(=O)Cc1c(N2CCNC2=O)cc(C(F)(F)F)cc1C(F)(F)F)c1ccc(F)cc1 [Example 51, N-(4-fluorophenyl)-N-methyl-2-(2-(2-oxoimidazolidin-1-yl)-4,6-bis(trifluoromethyl)phenyl)acetamide] | – | 117
20 | CN(C(=O)Oc1c(N2CCNC2=O)cc(C(F)(F)F)cc1C(F)(F)F)c1ccccc1CC#N [Example 33, 2,4-bis(trifluoromethyl)-6-(2-oxoimidazolidin-1-yl)phenyl 2-(cyanomethyl)phenylmethylcarbamate] | – | 590
21 | CN1CCN(c2cc(C(F)(F)F)cc(C(F)(F)F)c2OC(=O)N(C)c2ccc(F)c(Cl)c2F)C1=O [Example 8, 2,4-bis(trifluoromethyl)-6-(3-methyl-2-oxoimidazolidin-1-yl)phenyl (3-chloro-2,4-difluorophenyl)(methyl)carbamate] | 3.4 | –
22 | Cc1cc(C(F)(F)F)cc(N2C[C@H](O)CC2=O)c1OC(=O)N(C)c1ccc(F)cc1 [Example 12, (R)-2-(4-hydroxy-2-oxopyrrolidin-1-yl)-6-methyl-4-(trifluoromethyl)phenyl (4-fluorophenyl)(methyl)carbamate] | 4.4 | –
23 | CN(C(=O)Oc1c(N2CCNC2=O)cc(C(F)(F)F)cc1C(F)(F)F)c1ccc(F)cn1 [Example 52, 2-(2-oxoimidazolidin-1-yl)-4,6-bis(trifluoromethyl)phenyl (5-fluoropyridin-2-yl)(methyl)carbamate] | 11.4 | –
24 | CN(C(=O)Oc1c(N2CCN(CCO)C2=O)cc(Cl)cc1C(F)(F)F)c1ccc(F)cc1 [Example 54, 4-chloro-2-(3-(2-hydroxyethyl)-2-oxoimidazolidin-1-yl)-6-(trifluoromethyl)phenyl (4-fluorophenyl)(methyl)carbamate] | 68 | –
25 | [2H]C([2H])([2H])N(C(=O)Oc1c(N2CCN(CC(O)CN(C)C)C2=O)cc(C(F)(F)F)cc1C(F)(F)F)c1ccc(F)c(Cl)c1F (centres unmarked) [Example 40, 2-(3-(3-(dimethylamino)-2-hydroxypropyl)-2-oxoimidazolidin-1-yl)-4,6-bis(trifluoromethyl)phenyl (3-chloro-2,4-difluorophenyl)(methyl-d3)carbamate] | 6.3 | –
26 | CN(C(=O)Oc1c(N2CCCC2)cc(C(F)(F)F)cc1C(F)(F)F)c1ccc(F)cc1 [Example 11, 2,4-bis(trifluoromethyl)-6-(pyrrolidin-1-yl)phenyl 4-fluorophenylmethylcarbamate] | – | 15
